Assay results reported in patent publication EP3723746B1, “PHENOXY ACIDS FOR THE TREATMENT OF NEUROMUSCULAR DISORDERS” (NMD Pharma A/S, priority 2017, dated 2019).

Each compound was assayed on Lewis rats (assay: Measurement of in situ muscle contractile characteristics (isometric hindlimb force under cisatracurium block)). Settings: 21.5 mg/kg i.v., 12 Hz stimulation, cisatracurium infusion, 3 experiments.
Assay type: in vivo
Protocol: Isometric hindlimb force was measured in 12-week old female Lewis rats in the presence and absence of compound.
Rats were placed under anesthesia with isoflurane (2-4%), intubated and subsequently connected to a micro ventilator (Microvent 1, Hallowell EMC, US). Two stimulation electrodes were inserted through the skin to stimulate the sciatic nerve. A small incision was made proximal to the ankle, to expose the Achilles tendon, which was tied by cotton string, and connected to a force transducer (Fort250, World Precision Instruments) with adjustable position (Vernier control). The Achilles tendon was then cut distal to the attached cotton string. The rat was placed on a heated pad, and to prevent movement artefacts from contraction of the ankle dorsiflexors, the foot was fixated by tape on a footplate.
Muscle contractile properties were assessed by applying an electrical current (under supramaximal voltage conditions) to the nerve and recording the force generated by the muscle. The muscle was stretched until maximal force was obtained, when assessed by 2 Hz stimulation. Isometric force was measured every 30 seconds at 12 Hz (Twitch), 10 pulses, and at every 5 minutes at 80 Hz (Tetanic) for 1 second (80 pulses). This stimulation pattern was employed throughout the experiment, expect in few cases where 80 Hz stimulation was replaced by 12 Hz (10 pulses). […] When the level of neuromuscular inhibition was stable, the test article was injected i.v. at the chosen concentration. The effect of test article was assessed on its ability to increase force generated from the stimulation pattern applied. The effect was assessed in the ability to increase force per se (tetanic, 80 Hz, stimulation), and the ratio between individual twitch peaks (12 Hz stimulation). The effect was monitored for at least 1 hour after injection of test article. In addition, the time from injection of test article to maximal effect on force (both twitch and tetanic) was noted and the time for the effect to disappear (return to baseline), if possible. When appropriate the infusion of neuromuscular blocking agent was ceased, with the stimulation pattern continued, and the return of force to control levels was monitored. Animals were sacrificed by cervical dislocation while still fully sedated.
For `C[C@H](Oc1ccc(Br)cc1C1CC1)C(=O)O` [Compound A-2, (2S)-2-(4-bromo-2-cyclopropylphenoxy)propanoic acid], the “change in twitch peaks” value was “no significant change”.

Same assay, conditions: 21.5 mg/kg i.v., 80 Hz stimulation, cisatracurium infusion, 3 experiments
For `C[C@H](Oc1ccc(Br)cc1C1CC1)C(=O)O` [Compound A-2, (2S)-2-(4-bromo-2-cyclopropylphenoxy)propanoic acid], the “average increase in tetanic force” value was 28.5%.

These compounds were tested on soleus muscles (assay: Measurement of force in an in vitro model: recovery of contractile force of isolated rat soleus nerve-muscle preparation after tubocurarine). Settings: Rattus norvegicus, 40 min; 50 µM test compound, after 90 mins 115 nM tubocurarine; percentage of the initial force restored after 40 mins of compound exposure; read-out: Point increase.
Protocol: Recovery of force is quantified as the percentage of the force prior to tubocurarine that is recovered by the compound.
The current invention relates to compounds that inhibit CIC-1 ion channels and increase muscle excitability and thereby improve muscle function in clinical conditions where muscle activation is failing. Such conditions result in loss of contractile function of skeletal muscle, weakness and excessive fatigue. In this series of experiments the compounds were tested for their ability to restore contractile function of isolated rat muscle when the neuromuscular transmission had been compromised akin to neuromuscular disorders.
Experimentally, soleus muscles from 4-5 week old rats were isolated with the motor nerve remaining attached. The nerve-muscle preparations were mounted in experimental setups that enabled electrical stimulation of the motor nerve. Stimulation of the motor nerve led to activation of the muscle fibres and ensuing force production that was recorded.
After mounting the nerve-muscle preparation in the experimental setup, the contractile function of the muscle was initially assessed under the control conditions (Figure 2A). […] The experimental condition mimics the failing neuromuscular transmission in a range of neuromuscular disorders. After addition of tubocurarine the contractile force declined over the next 90 mins to 10-50 % of the control force. 50 µM of the test compound was then added and the contractile force recovered despite the continued presence of tubocurarine. To quantify the ability of the compound to restore force the percentage of the initial force that was restored was determined after 40 mins of compound exposure (Figure 2B) and the point increase is reported in Table 3. Table 3: Percentage increase of initial force that was restored
`C[C@H](Oc1cc(F)c(Br)cc1C1CC1)C(=O)O` [Compound A-44, (2S)-2-(4-bromo-2-cyclopropyl-5-fluorophenoxy)propanoic acid] was tested, and the activation at 50 µM was 12%. For `C#Cc1cc(Br)c(F)cc1O[C@@H](C)C(=O)O` [Compound A-47, (2S)-2-(4-bromo-2-ethynyl-5-fluorophenoxy)propanoic acid], the activation at 50 µM was 15%. `C#Cc1cc(Br)ccc1O[C@@H](CC)C(=O)O` [Compound A-54, (2S)-2-(4-bromo-2-ethynylphenoxy)butanoic acid] was tested, and the activation at 50 µM was 18%. Work on `O=C(O)COc1ccc(Br)cc1C1CC1` [Compound A-55, 2-(4-bromo-2-cyclopropylphenoxy)acetic acid] yielded an activation at 50 µM of 25%. Work on `C=Cc1cc(Br)ccc1O[C@@H](CCF)C(=O)O` [Compound A-51, (2S)-2-(4-bromo-2-ethenylphenoxy)-4-fluorobutanoic acid] yielded an activation at 50 µM of 27%. In the case of `C#Cc1cc(Br)ccc1OCC(=O)O` [Compound A-56, 2-(4-bromo-2-ethynylphenoxy)acetic acid], the activation at 50 µM is reported as 14%. For `[2H]C([2H])(C)C(=O)c1cc(Cl)ccc1O[C@@H](C)C(=O)O` [Compound A-27, (2S)-2-{4-chloro-2-[(2,2-^2H2)propanoyl]phenoxy}propanoic acid], the activation at 50 µM was 36%. `C[C@H](Oc1ccc(Br)cc1C1CCC1)C(=O)O` [Compound A-14, (2S)-2-(4-bromo-2-cyclobutylphenoxy)propanoic acid] gave an activation at 50 µM of 17%. `C#Cc1cc(Cl)c(F)cc1O[C@@H](C)C(=O)O` [Compound A-48, (2S)-2-(4-chloro-2-ethynyl-5-fluorophenoxy)propanoic acid] was tested, and the activation at 50 µM was 14%. In the case of `C[C@H](Oc1ccc(Br)cc1C=C(F)F)C(=O)O` [Compound A-36, (2S)-2-[4-bromo-2-(2,2-difluoroethenyl)phenoxy]propanoic acid], the activation at 50 µM is reported as 16%. Work on `C=Cc1cc(Br)ccc1O[C@@H](C)C(=O)O` [Compound A-17, (2S)-2-(4-bromo-2-ethenylphenoxy)propanoic acid] yielded an activation at 50 µM of 21%.

Each compound was assayed against T1, human CIC-1 channels (Homo sapiens, UniProt P35523) (assay: Automated patch-clamp on the human isoform of CIC-1 expressed in CHO cells). Settings: compound added intracellularly vs control cell patches; positive shift reflects CIC-1 inhibition.
T1 construct: host or cells: CHO cells constitutively expressing human ClC-1
T1 sequence (P35523 whole entry, canonical isoform): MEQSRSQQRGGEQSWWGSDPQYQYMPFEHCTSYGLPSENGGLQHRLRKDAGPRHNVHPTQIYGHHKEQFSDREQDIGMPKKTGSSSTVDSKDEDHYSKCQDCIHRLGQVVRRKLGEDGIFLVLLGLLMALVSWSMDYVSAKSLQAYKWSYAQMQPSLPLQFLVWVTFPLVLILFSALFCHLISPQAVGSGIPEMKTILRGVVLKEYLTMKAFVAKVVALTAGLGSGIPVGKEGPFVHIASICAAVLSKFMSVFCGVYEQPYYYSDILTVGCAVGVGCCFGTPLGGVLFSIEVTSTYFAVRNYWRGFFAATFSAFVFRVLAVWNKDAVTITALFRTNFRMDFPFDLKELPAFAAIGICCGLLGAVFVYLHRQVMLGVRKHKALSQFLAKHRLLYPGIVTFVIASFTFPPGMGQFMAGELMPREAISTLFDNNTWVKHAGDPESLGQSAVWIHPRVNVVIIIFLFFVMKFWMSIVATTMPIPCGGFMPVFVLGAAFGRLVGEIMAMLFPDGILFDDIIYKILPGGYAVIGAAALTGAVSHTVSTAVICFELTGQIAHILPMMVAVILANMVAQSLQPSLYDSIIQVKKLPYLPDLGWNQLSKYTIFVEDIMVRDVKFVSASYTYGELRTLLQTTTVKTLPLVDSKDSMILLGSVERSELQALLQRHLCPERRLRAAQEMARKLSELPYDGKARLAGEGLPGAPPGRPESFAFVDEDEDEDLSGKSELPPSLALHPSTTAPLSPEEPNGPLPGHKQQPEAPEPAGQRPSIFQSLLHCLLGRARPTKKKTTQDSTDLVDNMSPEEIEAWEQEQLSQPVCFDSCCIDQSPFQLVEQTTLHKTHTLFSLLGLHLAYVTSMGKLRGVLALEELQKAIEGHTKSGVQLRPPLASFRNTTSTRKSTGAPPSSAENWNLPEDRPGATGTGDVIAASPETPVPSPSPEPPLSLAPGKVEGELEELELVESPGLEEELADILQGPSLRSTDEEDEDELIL
Assay type: cell-based
Protocol: The investigatory goal of these experiments was to evaluate how compounds affect the open probability and current amplitude of human CIC-1 channels expressed in CHO cells. Experiments were performed using an automated patch clamp system that allowed high throughput testing of whole cell patches together with both intracellular and extracellular addition of compound.
Automated whole cell patch clamp experiments were performed with the Qpatch 16 system (Sophion Bioscience, Ballerup, Denmark) at room temperature. Data acquisition and analysis were performed in the Qassay software (ver. 5.6, Odense).
To evoke CIC-1 currents in whole cell patches, the membrane potential was initially stepped from a holding potential of -30 mV to +60 mV for 100 ms and then to various test voltages (sweeps) ranging from +120 mV to -140 mV in steps of 20 mV for 300 ms. To obtain tail currents, the membrane potential was stepped to -100 mV after each test voltage for 300 ms and then relaxed to -30 mV for 2 sec between sweeps (Figure 3). I/V relationships for whole cell instant and steady state current amplitudes were obtained by plotting average current densities at the beginning and at the end of the 300 ms step against the membrane potential (Figure 4).
In order to determine the relative overall open probability (P0), the instantaneous tail currents were normalized to the maximal tail current obtained following the most positive voltage step and plotted against the test voltage. Plots of normalized tail currents from each whole cell patch were then fitted to a Boltzmann function allowing determination of half activation voltages (V1/2, Figure 5).
For automated patch clamp experiments extracellular solutions contained: 2 mM CaCl2, 1 mM MgCl2, 10 mM HEPES, 4 mM KCI, 145 mM NaCl, 10 mM Glucose, pH adjusted to 7.4 with NaOH (2 M). Osmolality adjusted to ~320 using sucrose.
Intracellular solutions contained: 80 mM CsF, 60 mM CsCI, 5/1 mM KOH/EGTA, 10 mM HEPES, 10 mM NaCl, pH adjusted to 7.2 with NaOH (2 M). Osmolality adjusted to ~320 mOsm using sucrose.
Cells used in patch clamp experiments were Chinese hamster ovary cells (CHO) constitutively expressing human CIC-1 channels. The amino acid sequence encoded by the cDNA used to create this cell line was identical to the translated sequence for GenBank accession number NM_000083.2. Cells were produced by Charles River (Catalogue CT6175, Cleveland OH, USA) in a cryopreserved format. Experiments were performed on the cells directly after thawing (3 × 10^6 cells used in each experiment).
To evaluate the compound effect on CIC-1, when applied directly to the intracellular side of the cell membrane, the half activation voltage, V1/2, was determined from whole cell patches with compound added to the intracellular solution and then compared to V1/2 determined from control cell patches with only vehicle added to the intracellular solution. Additionally, the effect of extracellular added compound was evaluated by determine V1/2 and steady state current amplitudes before and after exchanging the extracellular solution to contain compound.
The difference in half activation voltage of CIC-1 channels, ΔV1/2, was determined as the difference between the cell patches treated intracellularly with compound and control cells patches and is reported in Table 4 below. A positive shift in ΔV1/2 is reflecting CIC-1 channel inhibition by the tested compound. P-values of <0.05 is considered significant. […]
`C#Cc1cc(Cl)ccc1O[C@@H](C)C(=O)O` [Compound A-20, (2S)-2-(4-chloro-2-ethynylphenoxy)propanoic acid] was tested, and the ΔV1/2 was 26.4 mV. `C[C@H](Oc1ccc(Br)cc1C1CC1)C(=O)O` [Compound A-2, (2S)-2-(4-bromo-2-cyclopropylphenoxy)propanoic acid] showed a ΔV1/2 of 9.2 mV. With `CCC(=O)c1cc(Cl)ccc1O[C@@H](C)C(=O)O` [Compound A-30, (2S)-2-(4-chloro-2-propanoylphenoxy)propanoic acid] the ΔV1/2 was 6.2 mV. Compound `C[C@H](Oc1ccc(Cl)cc1C1CC1)C(=O)O` [Compound A-4, (2S)-2-(4-chloro-2-cyclopropylphenoxy)propanoic acid] has a ΔV1/2 of 8.8 mV. Work on `C[C@H](Oc1ccc(Br)cc1C=C(F)F)C(=O)O` [Compound A-36, (2S)-2-[4-bromo-2-(2,2-difluoroethenyl)phenoxy]propanoic acid] yielded a ΔV1/2 of 21.5 mV. `C=Cc1cc(Br)ccc1O[C@@H](C)C(=O)O` [Compound A-17, (2S)-2-(4-bromo-2-ethenylphenoxy)propanoic acid] showed a ΔV1/2 of 10.3 mV.

The compounds below were run against T2, CIC-1 channels (Rattus norvegicus, UniProt P35524) (assay: Electrophysiological measurement of compound inhibition of CIC-1 in rat muscle (Gm, three micro-electrode technique, soleus muscle fibres)). Settings: reduction of Gm in rat soleus muscle fibres, approx. 30°C; mean ± spread, n = number of experiments.
T2 construct: from tissue; host or cells: whole soleus muscle of 12-14 week old Wistar rats
T2 sequence (P35524 1-994): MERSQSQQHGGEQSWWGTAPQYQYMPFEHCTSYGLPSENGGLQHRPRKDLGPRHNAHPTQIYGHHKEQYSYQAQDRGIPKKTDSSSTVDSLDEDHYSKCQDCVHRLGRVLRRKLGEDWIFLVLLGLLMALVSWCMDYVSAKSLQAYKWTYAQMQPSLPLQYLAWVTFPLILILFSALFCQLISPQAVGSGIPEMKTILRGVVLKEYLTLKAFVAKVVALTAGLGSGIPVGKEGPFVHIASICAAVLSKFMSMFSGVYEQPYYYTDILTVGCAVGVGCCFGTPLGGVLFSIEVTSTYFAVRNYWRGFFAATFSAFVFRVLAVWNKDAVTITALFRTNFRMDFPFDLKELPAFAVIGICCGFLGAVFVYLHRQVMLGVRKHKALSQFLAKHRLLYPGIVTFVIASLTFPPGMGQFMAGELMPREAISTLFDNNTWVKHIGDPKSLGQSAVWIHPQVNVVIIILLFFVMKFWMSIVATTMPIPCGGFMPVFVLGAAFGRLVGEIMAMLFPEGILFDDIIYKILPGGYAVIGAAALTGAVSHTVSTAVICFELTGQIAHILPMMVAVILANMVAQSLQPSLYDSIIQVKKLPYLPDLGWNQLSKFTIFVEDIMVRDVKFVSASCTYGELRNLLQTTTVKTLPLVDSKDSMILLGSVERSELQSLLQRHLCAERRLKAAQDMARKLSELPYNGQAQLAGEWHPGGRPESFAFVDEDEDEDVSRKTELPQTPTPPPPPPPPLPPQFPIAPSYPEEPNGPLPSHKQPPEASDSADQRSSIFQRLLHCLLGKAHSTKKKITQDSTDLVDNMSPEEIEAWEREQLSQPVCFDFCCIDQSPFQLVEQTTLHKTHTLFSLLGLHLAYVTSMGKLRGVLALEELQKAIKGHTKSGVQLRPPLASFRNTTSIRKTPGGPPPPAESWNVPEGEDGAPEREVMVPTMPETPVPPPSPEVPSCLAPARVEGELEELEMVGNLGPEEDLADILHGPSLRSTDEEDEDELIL
Assay type: cell-based
Description: Table 2: Inhibition of CIC-1 ion channel using compounds of the invention
Compound `C#Cc1cc(Br)ccc1O[C@@H](CC)C(=O)O` [Compound A-54, (2S)-2-(4-bromo-2-ethynylphenoxy)butanoic acid] has an EC50 of 7.2 ± 3.5 µM. For `O=C(O)COc1ccc(Br)cc1C1CC1` [Compound A-55, 2-(4-bromo-2-cyclopropylphenoxy)acetic acid], the EC50 was 6.4 µM. With `C=Cc1cc(Br)ccc1O[C@@H](CCF)C(=O)O` [Compound A-51, (2S)-2-(4-bromo-2-ethenylphenoxy)-4-fluorobutanoic acid] the EC50 was 4 ± 3 µM. With `C[C@H](Oc1ccc(Br)cc1/C=C/F)C(=O)O` [Compound A-52, (2S)-2-{4-bromo-2-[(1E)-2-fluoroethenyl]phenoxy}propanoic acid] the EC50 was 3 µM. `[2H]C([2H])(C)C(=O)c1cc(Cl)ccc1O[C@@H](C)C(=O)O` [Compound A-27, (2S)-2-{4-chloro-2-[(2,2-^2H2)propanoyl]phenoxy}propanoic acid] gave an EC50 of 8.3 µM. In the case of `C[C@H](Oc1ccc(Br)cc1C1CCC1)C(=O)O` [Compound A-14, (2S)-2-(4-bromo-2-cyclobutylphenoxy)propanoic acid], the EC50 is reported as 4.3 ± 2.3 µM. For `C#Cc1cc(Br)ccc1O[C@H](C(=O)O)C1CCC1` [Compound A-46, (2S)-2-(4-bromo-2-ethynylphenoxy)-2-cyclobutylacetic acid], the EC50 was 6.1 µM. In the case of `C[C@H](Oc1ccc(Br)cc1C=C(F)F)C(=O)O` [Compound A-36, (2S)-2-[4-bromo-2-(2,2-difluoroethenyl)phenoxy]propanoic acid], the EC50 is reported as 3.7 µM. In the case of `C=Cc1cc(Br)ccc1O[C@@H](C)C(=O)O` [Compound A-17, (2S)-2-(4-bromo-2-ethenylphenoxy)propanoic acid], the EC50 is reported as 4.2 ± 0.7 µM.
